Patent US20250320227A1, “MACROCYCLIC OREXIN RECEPTOR AGONISTS AND USES THEREOF” (Jazz Pharmaceuticals Ireland Limited, priority 2022, published 2025)

test system: not given; assay: not given; conditions: from C[C@@H]1CC2(COCC(=O)N2)C(COC2CC=C(c3cccc(F)c3OCC(=O)O)CC2)N1; amide bond; HATU, DIPEA; acetonitrile; 16.9 mM; 3.0 h

Row | SMILES | ring closure, yield of all isomers [%]
1 | C[C@@H]1CC2(COCC(=O)N2)C2COC3CC=C(CC3)c3cccc(F)c3OCC(=O)N21 (stereo partly drawn) | 30.1

same assay, conditions: from O=C(O)COc1ccccc1[C@H]1CC[C@@H](OCC2NCCCC2O)CC1; amide bond; HATU; acetonitrile; 19.25 mM; 3.0 h

Row | SMILES | ring closure, yield of all isomers [%]
2 | O=C1COc2ccccc2[C@H]2CC[C@H](CC2)OCC2C(O)CCCN12 (stereo partly drawn) | 65

molecular target: T1, human recombinant OX2 (hOX2) receptors expressed in CHO cells (Homo sapiens, UniProt O43614); assay: IP-1 accumulation assay (IP-One HTRF) in hOX2-CHO cells; format: cell-based; conditions: 60 min incubation at 37° C., mean of at least two independent experiments, read-out: EC50_OX2R Category
T1 construct: host or cells: CHO cells (hOX2-CHO)
T1 sequence (O43614 1-444): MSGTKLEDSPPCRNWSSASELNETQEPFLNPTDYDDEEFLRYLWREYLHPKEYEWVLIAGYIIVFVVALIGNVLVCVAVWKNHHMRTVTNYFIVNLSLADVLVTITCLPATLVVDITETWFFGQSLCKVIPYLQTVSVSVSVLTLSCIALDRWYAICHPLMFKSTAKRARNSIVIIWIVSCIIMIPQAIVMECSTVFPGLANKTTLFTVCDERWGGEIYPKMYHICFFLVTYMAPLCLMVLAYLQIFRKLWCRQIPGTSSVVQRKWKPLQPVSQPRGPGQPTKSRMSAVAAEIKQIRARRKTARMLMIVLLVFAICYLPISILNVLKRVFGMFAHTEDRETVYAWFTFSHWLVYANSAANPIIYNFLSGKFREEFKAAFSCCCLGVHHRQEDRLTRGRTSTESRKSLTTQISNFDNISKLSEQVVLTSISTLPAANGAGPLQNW
Procedure, shortened: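 IP-1 HTRF (665/615 ratio) after 60 min compound exposure at 37 °C, 11-point dilution, 0.5% DMSO, LiCl-containing HEPES-buffered HBSS pH 7.4. Response expressed as percent of maximal OX-A effect; EC50 by four-parameter logistic fit, averaged over at least two independent experiments in duplicate.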

Row | EC50 [nM] | SMILES
3 | < 100 | O=C1COCC2(CCCN3C(=O)C4(CC4)COc4ccccc4[C@H]4CC[C@H](CC4)OCC32)N1 (stereo partly drawn) [Example 37, Rel-(1′s,16′S,17′R,20's)-dispiro[cyclopropane-1,10′-[8,19]dioxa-[12]azatetracyclo[18.2.2.0^2,70.0^12,17]tetracosane-16′,3″-morpholine]-2′(7′),3′,5′-triene-5″,11′-dione]
4 | < 100 | O=C1COCC2(CCCN3C(=O)COc4ccc(F)cc4[C@H]4CC[C@H](CC4)OCC32)N1 (stereo partly drawn) [Example 41, Rel-(1′s,3S,16′R,19′s)-4′-fluoro-8′,18′-dioxa-11′-azaspiro[morpholine-3,15′-tetracyclo[17.2.2. 0^2,^7.0^11,^16]tricosane]-2′(7′),3′,5′-triene-5,10′-dione]
5 | < 100 | O=C1COCC2(CCCN3C(=O)COc4ncccc4[C@H]4CC[C@H](CC4)OCC32)N1 (stereo partly drawn) [Example 45, Rel-(1′s,3S,16′R,19′s)-8′,18′-dioxa-6′,11′-diazaspiro [morpholine-3,15′-tetracyclo[17.2.2. 0^2,^7.0^11,^16]tricosane]-2′(7′),3′,5′-triene-5,10′-dione]
6 | > 10000 | O=C1COC[C@]2(CCCN3C(=O)COc4ncccc4[C@H]4CC[C@H](CC4)OC[C@@H]32)N1 [Example 45b, (1′s,3R,16′S,19′s)-8′,18′-dioxa-6′,11′-diazaspiro [morpholine-3,15′-tetracyclo[17.2.2. 0^2,^7.0^11,^16]tricosane]-2′(7′),3′,5′-triene-5,10′-dione]
7 | < 100 | Cc1cccc2c1[C@H]1CC[C@H](CC1)OCC1N(CCCC13COCC(=O)N3)C(=O)CO2 (stereo partly drawn) [Example 47, Rel-(1′s,3S,16′R,19′s)-3′-methyl-8′,18′-dioxa-11′-azaspiro[morpholine-3,15′-tetracyclo[17.2.2. 0^2,^7.0^11,^16]tricosane]-2′(7′),3′,5′-triene-5,10′-dione]
8 | 1000 to 10000 | O=C1COCC2(CCCN3C(=O)COCc4ccccc4[C@H]4CC[C@H](CC4)OCC32)N1 (stereo partly drawn) [Example 55, Rel-(1′s,3S,17′R,20's)-9′,19′-dioxa-12′-azaspiro[morpholine-3,16′-tetracyclo[18.2.2.0^2,70.0^12,17]tetracosane]-2′(7′),3′,5′-triene-5,11′-dione]
9 | 100 to 1000 | O=C1CCOc2ccccc2[C@H]2CC[C@H](CC2)OCC2N1CCCC21CCCS(=O)(=O)N1 (stereo partly drawn) [Example 60, Rel-(1s, 16R,17R,20s)-8,19-dioxa-12-azaspiro[tetracyclo[18.2.2.0^2,70.0^12,17]tetracosane-16,3′-[1λ^6,2]thiazinane]-2 (7),3,5-triene-1′,1′,11-trione]
10 | 1000 to 10000 | O=C1COCC2(CCCN3C(=S)COc4ccccc4[C@H]4CC[C@H](CC4)OCC32)N1 (stereo partly drawn) [Example 66, Rel-(1′s,3S,16′R,19′s)-10′-sulfanylidene-8′,18′-dioxa-11′-azaspiro[morpholine-3,15′-tetracyclo[17.2.2.0^2,70.0^11,16]tricosane]-2′(7′),3′,5′-trien-5-one]
11 | < 100 | Cc1ccnc2c1C1CCC(CC1)OCC1N(CCCC13COCC(=O)N3)C(=O)CO2 [Example 77a, (1′s,3S,16′R,19′s)-3′-methyl-8′,18′-dioxa-6′,11′-diazaspiro[morpholine-3,15′-tetracyclo[17.2.2.0^2,70.0^11,16]tricosane]-2′,4′,6′-triene-5,10′-dione]
12 | > 10000 | Cc1ccnc2c1[C@H]1CC[C@H](CC1)OC[C@H]1N(CCC[C@]13COCC(=O)N3)C(=O)CO2 [Example 77b, (1′s,3R,16′S,19′s)-3′-methyl-8′,18′-dioxa-6′, 11′-diazaspiro[morpholine-3,15′-tetracyclo[17.2.2.0^2,70.0^11,16]tricosane]-2′,4′,6′-triene-5,10′-dione]
